Tested on: Metabolic Syndrome cases
Experiment: Clinical study in Metabolic Syndrome cases
Assay type: in vivo, human
Method: The study population consisted of 128 diagnosed Metabolic Syndrome cases (76 Men and 52 Women), aged 52.81±9.68 years at study entry. The cases were diagnosed as per criteria given by WHO for classification and diagnosis of Metabolic Syndrome. After preliminary screening the subjects showing association with 3 or more than 3 above factors were selected. The clinical trial was conducted in three groups— Group-I: 36 cases were treated with Orlistat (120 mg twice a day after each meals). Group-II: 44 cases were treated with Ayurvedic formulation. Group-III: 48 cases were administered Orlistat along with Ayurvedic formulation. […] Lipid profile including triglyceride was estimated by standard laboratory kits. TNF-[…], interleukin-6 was measured by ELISA kit, adiponectin by radioimmunoassay kit. CRP by kit for quantitative nephelometric determination of CRP in human serum or plasma by Turbox/Turbox analyzer and ELISA activity assay kit for Leptin level. Subjects suffering from any other disease known to affect the study parameters were excluded from the series. Upon recruitment all subjects gave informed written consent.

`CCCCCCCCCCC[C@@H](C[C@@H]1OC(=O)[C@H]1CCCCCC)OC(=O)[C@H](CC(C)C)NC=O` [Conventional drug, Orlistat] was tested, and the Adiponectin (After 6 months) was 10.04 ± 2.84 µg/mL, the “Apolipo (B)” value (After 6 months) was 156.41 ± 17.11 mg/dL and the Diastolic blood pressure (After 6 months) was 84.42 ± 1.98 mmHg. The Endotheline (After 6 months) was 875.42 ± 171.36 pg/mL, the Fasting blood glucose (After 6 months) was 99.43 ± 4.36 mg/dL and the HDL-c (After 6 months) was 50.75 ± 3.12 mg/dL. It also gave an Interleukin-6 (After 6 months) of 1.89 ± 0.75 pg/mL, an LDL-c (After 6 months) of 109.42 ± 8.44 mg/dL and a Leptin (After 6 months) of 26.44 ± 3.28 µg/L. It also gave a Postprandial blood glucose (After 6 months) of 186.90 ± 17.42 mg/dL, a Systolic blood pressure (After 6 months) of 126.90 ± 4.06 mmHg and a TNF-α (After 6 months) of 324.85 ± 57.86 pg/mL. The Total cholesterol (After 6 months) was 208.91 ± 27.97 mg/dL, the Triglycerides (After 6 months) was 224.56 ± 37.90 mg/dL and the “hs CRP” value (After 6 months) was 3.48 ± 0.89 mg/L. For the same compound, the “Body Mass Index (BMI)” value (Female, After 3 months) was 29.68 ± 2.04, the “Body Mass Index (BMI)” value (Female, After 6 months) was 28.45 ± 1.68 and the “Body Mass Index (BMI)” value (Female, Initial) was 31.14 ± 1.88. For the same compound, the Adiponectin (Initial) was 7.82 ± 1.64 µg/mL, the “Apolipo (B)” value (Initial) was 193.88 ± 31.64 mg/dL and the Diastolic blood pressure (Initial) was 88.35 ± 2.06 mmHg. The Endotheline (Initial) was 1139.73 ± 211.54 pg/mL, the Fasting blood glucose (Initial) was 133.90 ± 8.82 mg/dL and the HDL-c (Initial) was 43.84 ± 2.42 mg/dL. For the same compound, the Interleukin-6 (Initial) was 2.35 ± 0.84 pg/mL, the LDL-c (Initial) was 143.71 ± 9.13 mg/dL and the Leptin (Initial) was 33.41 ± 4.35 µg/L. The Postprandial blood glucose (Initial) was 224.81 ± 20.14 mg/dL, the Systolic blood pressure (Initial) was 137.82 ± 5.15 mmHg and the TNF-α (Initial) was 579.84 ± 68.36 pg/mL. For the same compound, the Total cholesterol (Initial) was 243.84 ± 41.52 mg/dL, the Triglycerides (Initial) was 371.90 ± 43.88 mg/dL and the “hs CRP” value (Initial) was 5.31 ± 1.04 mg/L. The “Body Mass Index (BMI)” value (Male, After 3 months) was 28.82 ± 1.90, the “Body Mass Index (BMI)” value (Male, After 6 months) was 27.16 ± 1.35 and the “Body Mass Index (BMI)” value (Male, Initial) was 30.75 ± 2.17.

Source: US9642886B2, “Plant based formulation for the prevention and management of metabolic syndrome by its adiponectin enhancing property” (SRM UNIVERSITY, priority 2014, dated 2017)
